Measured values: US9180163B2, “Parstatin peptides” (priority 2009, dated 2015)

Legend:
[1] = test system: corneal neovascularization in Sprague-Dawley rats; test: chemical burn-induced corneal neovascularization, image analysis; assay type: in vivo, rat; details: 2×50 μg subconjunctival, day 7
From the text: Parstatin (1-41), hydrophobic parstatin (1-26) fragment and hydrophilic parstatin (24-41) fragment were used in an in vivo rat model of corneal neovascularization. In particular, chemical burn-induced corneal trauma was used to generate corneal neovascularization as a preclinical disease model simulating a plethora of corneal diseases associated with abnormal formation of new blood vessels. The cornea is normally an avascular tissue that can be stimulated to undergo pathological neoangiogenesis in response to mechanical or chemical injuries, pterygium, herpetic keratitis, etc. In this model, an inflammatory response is considered an important prerequisite for neovascularization. This model is widely accepted and is one of the most extensively studied models, which provides an in vivo environment to study this complex process with convenient access to the corneal tissue and the highly visible developing vasculature.
Pathogen-free male Sprague-Dawley rats (250-300 gr) were treated in accordance with the Association for Research in Vision and Ophthalmology Statement for the Use of Animals in Ophthalmic and Vision Research and the guidelines of the Animal Care and Use Committee at local University Medical School. […] The corneal neovascularization was assessed using a semiautomatic program, which was developed in MATLAB 7.5. […]

[2] = test system: choroidal neovascularization in C57BL/6J mice; assay type: in vivo; details: 10 μg intravitreal after laser and day 7; assessed day 14; vs vehicle (PBS or DMSO)
Procedure: Parstatin (1-41), hydrophobic parstatin (1-26) fragment and hydrophilic parstatin (24-41) fragment were used in an in vivo mouse model of choroidal neovascularization. In particular, laser photocoagulation-induced rupture of Bruch's membrane was used to generate choroidal neovascularization as a preclinical disease model for age-related macular degeneration. Pathogen-free C57BL/6J (4-5 week-old) mice were treated in accordance with the Association for Research in Vision and Ophthalmology Statement for the Use of Animals in Ophthalmic and Vision Research and the guidelines of the Animal Care and Use Committee at local University Medical School.
C57BL/6J (4-5 week-old) mice were anesthetized with ketamine hydrochloride (100 mg/kg body weight) and xylazine-(4 mg/Kg body weight) and the pupils were dilated with 1% tropicamide. Laser photocoagulation (75 μm spot size, 0.1 sec duration, 120 mW) was performed in the 9, 12, and 3 o'clock positions of the posterior pole of the retina with the slit lamp delivery system of an Oculight GL diode laser (Index, Mountain View, Calif.) and a handheld cover slip as a contact lens to view the retina. Production of a bubble at the time of laser, which indicates rupture of Bruch's membrane, is an important factor in obtaining CNV. Therefore, only burns in which a bubble was produced were included in the study. Two weeks after rupture of Bruch's membrane, anesthetized mice were perfused with 50 mg/ml fluorescein-labelled-dextran (2×10^6 average molecular weight, Sigma-Aldrich, St. Louis, Mo.). The eyes were then dissected and fixed in 10% Formalin for 3 hours and choroidal flat mounts were examined by fluorescence microscopy. Image-Pro Plus software (Media Cybernetics, Silver Spring, Md.) was used to measure the total area of CNV at each rupture site by personnel blinded as to study treatments and groups.
Intraocular injections of parstatin peptides were performed with a Harvard pump microinjection apparatus and pulled glass micropipets. […] Choroidal neovascularization was assessed 14 days after laser treatment.

[3] = test system: corneas of Sprague-Dawley rats; test: corneal histopathology after chemical burn (vessels, neutrophils); assay type: in vivo, rat; details: 2×50 μg, day 7
Procedure: After the above-described processes were performed, the rats were sacrificed (7 days) and the eyes were excised. All eyes were sectioned (4 μm) and stained with hematoxylin-eosin. Two independent pathologists, in a blinded manner, evaluated the microvessel density and the inflammatory cell infiltration in each slide. Total corneal vascular vessels and neutrophils were counted at 200× in seven representative stained tissue sections for each eye, covering all cornea area and having a similar distance from the central burn.

MGPRRLLLVAACFSLCGPLLSARTRA (listed as Homo sapiens) [parstatin (1-26)]
inhibition of corneal neovascularization [1]: 50%
inhibition of choroidal neovascularization [2]: 62%
inhibition of corneal mean number of vascular vessels [3]: 55%
inhibition of mean number of infiltrated neutrophils [3]: 71%

TRARRPESKATNATLDPR (listed as Homo sapiens) [parstatin (24-41), 24-41 (18 amino acids) of human parstatin, hydrophilic fragment]
inhibition of corneal neovascularization [1]: 60%
inhibition of choroidal neovascularization [2]: 77%
inhibition of corneal mean number of vascular vessels [3]: 68%
inhibition of mean number of infiltrated neutrophils [3]: 75%
